Measurements reported in patent publication US4925979A, “Flavone carboxylic acid derivatives” (Shionogi & Co., Ltd., priority 1986, dated 1990).
Where two headings read alike, the source gives them in different places. One block for each molecule: values may come before it.

Experiments:
[1] = tested on: human acute promyelocytic leukemia cells HL 60; test: Differentiation of HL-60 cells: NBT reduction (counting formazan-containing cells), ED50; assay type: cell-based; settings: for EC50: Homo sapiens, read-out: ED50 (effective dose which causes differentiation of 50% of the cultured cells); for activity (in words): HL-60 differentiation, Table 1
Procedure: The test of the activities of the compounds of this invention has been conducted by measuring the concentration required for inducing the differentiation of human acute promyelocytic leukemia cells HL 60, according to the methods described in detail hereinafter.
(§1) The HL-60 cell are cultured in plastic flasks in RPMI 1640 medium supplemented with 5% heat inactivated fetal calf serum and antibiotics (penicillin G and streptomycin). The cells (3×10^4 /ml) are cultured with a compound of the present invention for 4 days. The cells are fixed and stained with Wright-Giemsa to examine the morphological changes of the nuclei.
The biochemical activity of cells treated with the compound is measured as follows:
The cells after 5 days incubation are centrifuged and diluted with RPMI 1640 medium, supplemented with 5% fetal calf serum to provide a definite number of the cells. To the diluted cell suspension are then added 200 ng/ml of 12-o-tetradodecanoylphorbol-13 -acetate (TPA) and the resulting culture medium is then incubated for 20 minutes at 37° C. in the presence of 0.1% of NBT. Thus, the mature differentiated cells containing blue-black formazan is counted by microscopy, so that the ratio of the cells having the ability to reduce NBT, to total cells, can be calculated.
(§2) The biological test was performed according to the method previously described, using the leukemia cells HL 60. The morphological changes were observed under a light microscope. Biochemical activity reducing nitro-blue tetrazolium is assayed by counting the number of cells which contain formazan. The specific activity, ED50 (the concentration which causes the differentiation of 50% of the total cells, represented by M), was calculated and shown in the Table. As a positive control for comparison, all trans retinoic acid was used.

[2] = tested on: human acute promyelocytic leukemia cells (HL-60); test: Differentiation of HL-60 cells: morphological changes of nuclei (Wright-Giemsa); assay type: cell-based; settings: HL-60, 4 days culture
Procedure: as §1, §2

[3] = as seen from the therapeutic index; cited from earlier work
[4] = tested on: chemically-induced skin carcinomas in mice; settings: cited from earlier work
[5] = tested on: chemically-induced papillomas of the skin of mice; settings: minute quantities; cited from earlier work

EC50 ([1]; 96 h, HL-60 cells): 930 nM
SMILES: CC(C)(C)c1ccc(C(=O)C=C(O)c2ccc(C(=O)O)cc2)c(O)c1 [compound 9]

SMILES: CC1=C(/C=C/C(C)=C/C=C/C(C)=C/C(=O)O)C(C)(C)CCC1 [retinoic acid, all trans retinoic acid, reference compound]
differentiation to mature granulocytes [2]: differentiated to mature granulocytes | EC50 ([1]; HL-60, 96 h): 4.1 nM

SMILES: CC1(C)CCC(C)(C)c2cc(C(=O)C=C(O)c3ccc(C(=O)O)cc3)c(O)cc21 [compound 8]
EC50 ([1]; 96 h, HL-60 cells): 0.091 nM

EC50 ([1]; 96 h, HL-60 cells): 0.51 nM
SMILES: COC(=O)c1ccc(-c2cc(=O)c3cc4c(cc3o2)C(C)(C)CCC4(C)C)cc1 [compound 4]

EC50 ([1]; 96 h, HL-60 cells): 210 nM
SMILES: CC(C)(C)c1ccc2c(=O)cc(-c3ccc(C(=O)O)cc3)oc2c1 [compound 2]

SMILES: CC1(C)CCC(C)(C)c2cc(C(=O)C=Cc3ccc(C(=O)O)cc3)c(O)cc21 [compound 7]
EC50 ([1]; 96 h, HL-60 cells): 0.1 nM

SMILES: O=C(O)c1ccc(-c2cc(=O)c3ccccc3o2)cc1 [compound 1]
ED50 (effective dose which causes differentiation of 50% of the cultured cells) ([1]; HL-60 cells): inactive (10^-5)

SMILES: CC1(C)CCC(C)(C)c2cc3c(=O)cc(-c4ccc(C(=O)O)cc4)oc3cc21 [No. 5, 4-(6,7,8,9-tetrahydro-6,6,9,9,-tetramethyl-4H-4-oxo-naphtho[2,3-b]pyran-2-yl) benzoic acid]
activity (in words) [1]: one of the strongest compounds

SMILES: CCOC(=O)c1ccc(/C=C(\C)c2ccc3c(c2)C(C)(C)CCC3(C)C)cc1 [Artinoid]
activity relative to Retinoic acid [3]: ten times as strong

SMILES: CC1(C)CCC(C)(C)c2cc(C(=O)C=C(O)c3ccc(C(=O)O)cc3)c(O)cc21 [No. 8, 4-[1-hydroxy-3-(3-hydroxy-5,6,7,8-tetrahydro-5,5,8,8-tetra-methyl-2-naphthalenyl)-3-oxo-1-propenyl] benzoic acid]
activity (in words) [1]: most active compound

EC50 ([1]; 96 h, HL-60 cells): 0.063 nM
SMILES: CC1(C)CCC(C)(C)c2cc3c(=O)cc(-c4ccc(C(=O)O)cc4)oc3cc21 [compound 5]

SMILES: CCOC(=O)c1ccc(/C=C(\C)c2ccc3c(c2)C(C)(C)CCC3(C)C)cc1 [Ro 13 6298]
therapeutic influence on skin carcinomas [4]: therapeutic influence | regression of papillomas [5]: regression

EC50 ([1]; 96 h, HL-60 cells): 1.2 nM
SMILES: CC1(C)CCC(C)(C)c2cc3c(=O)c(O)c(-c4ccc(C(=O)O)cc4)oc3cc21 [compound 6]
